According to the supplement of paper PMC10477900:
Where a name gives a salt, the structure may show the parent alone.

Columns and labels:
[1] = test system: HCT116; settings: 72 h
Experimental: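 HCT116 control and MTA1-KO (CRISPR) HCT116 cells were seeded in 384-well plates (800 cells/well), treated 16 h later with 237 metabolism-related anticancer drugs at five doses (10 uM, 2 uM, 400 nM, 80 nM, 16 nM) for 72 h, two replicates; viability by CCK8. Values are % inhibition of viability relative to untreated cells, plus fitted IC50.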

[2] = test system: HCT116; test: viability inhibition vs untreated; higher = more cytotoxic; settings: 72 h

SMILES | IC50 ([1]; genotype: MTA1-KO) [µM] | IC50 ([1]; genotype: control) [µM] | viability inhibition ([2]; genotype: MTA1-KO, 16 nM) [%] | viability inhibition ([2]; genotype: MTA1-KO, 80 nM) [%] | viability inhibition ([2]; genotype: MTA1-KO, 400 nM) [%] | viability inhibition ([2]; genotype: MTA1-KO, 2000 nM) [%] | viability inhibition ([2]; genotype: MTA1-KO, 10000 nM) [%] | viability inhibition ([2]; genotype: control, 16 nM) [%] | viability inhibition ([2]; genotype: control, 80 nM) [%] | viability inhibition ([2]; genotype: control, 400 nM) [%] | viability inhibition ([2]; genotype: control, 2000 nM) [%] | viability inhibition ([2]; genotype: control, 10000 nM) [%]
c1ccc2c(CCNc3ccc(Nc4ccncc4)cc3)c[nH]c2c1 [Serdemetan] | 1.66 | 2.48 | 10.9 | 7.55 | 13.6 | 65.6 | 107 | 10.5 | 10.9 | 5.2 | 5.93 | 85.1
O=C(O)c1ccc2c(c1)nc(Nc1cccc(Cl)c1)c1ccncc12 [Silmitasertib] | > 10 | > 10 | -17.2 | -23.7 | -18.2 | -24.2 | -22 | 7.6 | -9.55 | -4.38 | -8.94 | -1.95
OCc1ccc(-c2ccc(-c3ccc(CO)s3)o2)s1 [RITA] | 1.21 | 0.153 | 7.71 | 35 | 91.7 | 101 | 99 | -0.895 | 27.2 | 72.5 | 96.3 | 104
COc1ccccc1OCC(O)CN1CCN(CC(=O)Nc2c(C)cccc2C)CC1 (stereo unspecified) [Ranolazine dihydrochloride] | > 10 | > 10 | -7.57 | -13.7 | -7.85 | -21.5 | -19 | -2.04 | 2.97 | -7.95 | -0.947 | 15
CNCc1cc(-c2ccccc2F)n(S(=O)(=O)c2cccnc2)c1 [Vonoprazan fumarate] | > 10 | > 10 | 12 | -19.8 | -19.3 | -21.7 | -12.1 | -12.5 | -10.5 | -14.4 | -16 | 11.8
Nc1cccc(S(=O)(=O)N2CCCN(S(=O)(=O)c3ccc4c(c3)OCCO4)CC2)c1 [DASA58] | 6.95 | > 10 | -0.728 | -19.4 | -15.8 | -12.1 | 75 | -13.2 | -25.9 | -13.7 | -17.4 | -6.72
O=c1cc(-c2ccc(O)c(O)c2)oc2cc(O)cc(O)c12 [Luteolin] | > 10 | > 10 | -5.43 | -9.09 | -11.5 | -2.12 | 7.81 | 2.79 | 2.36 | 3.47 | 12.7 | 12.7
O=C([O-])C(Cl)Cl.[Na+] [Sodium Dichloroacetate] | > 10 | > 10 | -5.96 | -6.01 | -16.4 | -11.2 | 11.1 | -15.2 | -8.93 | -10.2 | -22.3 | -2.12
C=C(C)[C@H]1Cc2c(ccc3c2O[C@@H]2COc4cc(OC)c(OC)cc4[C@@H]2C3=O)O1 [Rotenone] | 0.0743 | < 0.016 | 16.6 | 34.1 | 35.3 | 43.4 | 51.6 | 63.1 | 57.1 | 46.9 | 45.4 | 65.4
CCCC[S+]([O-])c1sc2nc(-c3cccs3)cc(-c3ccccc3)c2c1N (stereo unspecified) | > 10 | > 10 | 13.3 | 12.3 | 5.6 | 9.12 | 41.9 | 5.17 | 3.85 | 2.26 | 4.74 | 8.23
COc1cc(Nc2nc3ccccc3nc2NS(=O)(=O)c2ccc(NC(=O)c3ccc(C)c(OC)c3)cc2)cc(OC)c1 [Voxtalisib Analogue] | > 10 | > 10 | -13.9 | -7.35 | -17 | -3.38 | 24.9 | -7.04 | -8.31 | -4.56 | -7.36 | 5.96
CCN(CC)C(=S)SSC(=S)N(CC)CC [Disulfiram] | > 10 | > 10 | -26.6 | -25.2 | -25.3 | -20.1 | -18.3 | -6.96 | -11.2 | -6.9 | -8.44 | -2.88
CC(=O)OCC(=O)[C@@]1(O)CC[C@H]2[C@@H]3CCC4=CC(=O)C=C[C@]4(C)[C@H]3[C@@H](O)C[C@@]21C [Prednisolone-21-acetate] | > 10 | > 10 | -12.5 | -14 | -3.35 | -0.355 | -5.46 | -5.13 | -7.24 | -8.51 | -7.3 | -12.1
COc1ccc(COc2cc3oc(=O)c4cc(C(C)O)ccc4c3cc2OC)cc1 (stereo unspecified) [Palomid 529] | 0.283 | 1.11 | -7.41 | 23.6 | 37.3 | 64.4 | 90.1 | 7.44 | 22.7 | 38.9 | 54.6 | 86.9
CCCCCCCCCCC[C@@H](C[C@@H]1OC(=O)[C@H]1CCCCCC)OC(=O)[C@H](CC(C)C)NC=O [Orlistat] | > 10 | > 10 | -6.57 | -2.27 | -2.16 | -13.4 | 15.7 | 4.58 | -13.3 | -7.69 | -2.81 | 37
CC(=O)OC(C)(C)/C=C/C(=O)[C@](C)(O)[C@H]1[C@H](O)C[C@@]2(C)[C@@H]3CC=C4[C@@H](C[C@H](O)C(=O)C4(C)C)[C@]3(C)C(=O)C[C@]12C [Cucurbitacin B] | 0.34 | 4.56 | -3.8 | -16.3 | 58.7 | 66.6 | 79.9 | -19.7 | -9.21 | 33.3 | 49.7 | 58.9
CN1CCN(C(=O)/C=C/c2ccc([N+](=O)[O-])o2)CC1 | > 10 | > 10 | -10.2 | -18.9 | -24 | -18.6 | 19.7 | 0.552 | -3.92 | -15.2 | -0.064 | 11
Nc1ncnc2c1c(-c1cnc3[nH]ccc3c1)nn2C1CCCC1 [PP121] | 0.675 | 0.874 | 14.3 | 12.8 | 43.5 | 90.3 | 111 | 10.8 | 16.8 | 25.2 | 86.4 | 104
NS(=O)(=O)Cc1noc2ccccc12 [Zonisamide] | > 10 | > 10 | 2.91 | -1.38 | -4.06 | -5.28 | -6.62 | -7.18 | -18.6 | 2.58 | 2.07 | 31.7
O=C(O)CCC(=O)c1ccc(-c2ccccc2)cc1 [Fenbufen] | > 10 | > 10 | -12.7 | -18.9 | -14.3 | 3.54 | -0.929 | 3.15 | 8.7 | 7.49 | 6.47 | 10.4
COc1ccc2[nH]c([S@@+]([O-])Cc3ncc(C)c(OC)c3C)nc2c1 [Esomeprazole Sodium] | > 10 | > 10 | 3.92 | 2.7 | 7.98 | 6.88 | 10.1 | 27 | 8.16 | -3.32 | 4.21 | 12
NS(=O)(=O)c1cc2c(cc1C(F)(F)F)NC(Cc1ccccc1)NS2(=O)=O (stereo unspecified) [Bendroflumethiazide] | > 10 | > 10 | -4.82 | -2.33 | -5.2 | -12.6 | -13.6 | 0.542 | -1.18 | -14.6 | 4.49 | -9.53
CC1(C)CC[C@]2(C(=O)O[C@@H]3O[C@H](CO)[C@@H](O)[C@H](O)[C@H]3O)CC[C@]3(C)C(=CC[C@@H]4[C@@]5(C)CC[C@H](O[C@@H]6O[C@H](C(=O)O)[C@@H](O)[C@H](O)[C@H]6O)C(C)(C)[C@@H]5CC[C@]43C)[C@@H]2C1 [Chikusetsusaponin IVa] | > 10 | > 10 | -3.21 | -3.77 | -2.17 | -0.406 | 19.3 | -1.39 | -7.09 | -12.1 | -11.2 | 3.05
O=c1oc2ccccc2c(O)c1Cc1c(O)c2ccccc2oc1=O [Dicumarol] | 0.444 | 0.54 | 4.75 | 8.83 | 21.4 | 67.8 | 64.3 | 10.4 | 23.6 | 22.5 | 66.6 | 65.9
NS(=O)(=O)c1ccc(NC(=O)Nc2ccc(F)cc2)cc1 [U104] | > 10 | > 10 | -21.7 | -21.1 | -25.6 | -26.9 | -10.5 | -3.77 | -10.5 | -6.63 | -1.16 | 4.44
C[C@@H](C(=O)Nc1ccc(Cl)cc1)[C@H]1CC[C@@H](c2ccnc3ccc(F)cc32)CC1 [Linrodostat] | > 10 | > 10 | 1.54 | 1.21 | 3.39 | 14.8 | 44.2 | 10.9 | 21.6 | 17.7 | 28.7 | 22
CC1=C(/C=C/C(C)=C/C=C/C(C)=C/C(=O)Nc2ccc(O)cc2)C(C)(C)CCC1 [Fenretinide] | > 10 | > 10 | -13 | -18.5 | -15 | -14.4 | -2.3 | 23.7 | 2.62 | 1.09 | 9.79 | 15.3
CC1(C)O[C@@H]2[C@@H](CO[C@@]3(COS(N)(=O)=O)OC(C)(C)O[C@@H]23)O1 [Topiramate] | > 10 | > 10 | -4.79 | -13.2 | -12.6 | -13 | -6.53 | 0.571 | -0.663 | 3.41 | 3.1 | 12.4
